Assay results as given in patent US8217060B2, “Benzimidazole derivatives useful as TRP M8 receptor modulators” (Janssen Pharmaceutica, NV, priority 2009, dated 2012).
Where a name gives a salt, the structure may show the parent alone.

Target: T1, canine TRPM8 (Canis lupus familiaris, UniProt Q1A7N1)
T1 construct: expressed in transfected cells
Assay: In Vitro Canine TRPM8 Functional Assay (icilin-induced intracellular Ca2+ fluorescence, FLIPR/FDSS)
Type: cell-based
Conditions: HEK293 cells stably expressing canine TRPM8; for inhibition at 0.2 µM: 0.2 μM test compound, icilin challenge; for IC50: icilin challenge (~80% maximal response), eight-point dose-response
Protocol: The functional activity of representative compounds of the formula (I) of the present invention were measured by measuring changes in intracellular calcium concentration using a Ca^2+-sensitive fluorescent dye. The changes in fluorescent signal were monitored by a fluorescence plate reader, either a FLIPR™ (Molecular Devices) or FDSS (Hamamatsu).
HEK293 cells stably expressing canine TRPM8 were routinely grown as monolayers in Dulbecco's minimum essential medium supplemented with 10% FBS, 2 mM L-glutamine, 100 units/mL penicillin, 100 ug/mL streptomycin and 400 μg/mL G418. Cells were maintained in 5% CO2 at 37° C. At 24 hrs prior to assay, cells were seeded in black wall, clear-base poly-D-lysine coated 384-well plates (BD Biosciences, NJ, USA) at a density of 5,000 cells per well in culture medium and grown overnight in 5% CO2 at 37° C. On assay day, growth media was removed and cells were loaded with Calcium 3 Dye (Molecular Devices) for 35 min at 37° C., under 5% CO2 and then for 25 min at room temperature and atmosphere. Subsequently, cells were tested for agonist-induced increases in intracellular Ca^2+ levels using FLIPR™ or FDSS. Cells were challenged with compounds of the formula (I) (at varying concentrations) and intracellular Ca^2+ was measured for 5 min prior to the addition of icilin to all wells to achieve a final concentration that produces approximately an 80% maximal response.
Basal FI was subtracted prior to normalizing data to percent of maximal response. Curves were generated using the average of quadruplicate wells for each data point, were analyzed using nonlinear regression of either sigmoidal dose response or sigmoidal dose response (variable slope). Finally, the EC50 and IC50 values were calculated with the best-fit dose curve determined by GraphPad Prism

T1 sequence (Q1A7N1 1-1104): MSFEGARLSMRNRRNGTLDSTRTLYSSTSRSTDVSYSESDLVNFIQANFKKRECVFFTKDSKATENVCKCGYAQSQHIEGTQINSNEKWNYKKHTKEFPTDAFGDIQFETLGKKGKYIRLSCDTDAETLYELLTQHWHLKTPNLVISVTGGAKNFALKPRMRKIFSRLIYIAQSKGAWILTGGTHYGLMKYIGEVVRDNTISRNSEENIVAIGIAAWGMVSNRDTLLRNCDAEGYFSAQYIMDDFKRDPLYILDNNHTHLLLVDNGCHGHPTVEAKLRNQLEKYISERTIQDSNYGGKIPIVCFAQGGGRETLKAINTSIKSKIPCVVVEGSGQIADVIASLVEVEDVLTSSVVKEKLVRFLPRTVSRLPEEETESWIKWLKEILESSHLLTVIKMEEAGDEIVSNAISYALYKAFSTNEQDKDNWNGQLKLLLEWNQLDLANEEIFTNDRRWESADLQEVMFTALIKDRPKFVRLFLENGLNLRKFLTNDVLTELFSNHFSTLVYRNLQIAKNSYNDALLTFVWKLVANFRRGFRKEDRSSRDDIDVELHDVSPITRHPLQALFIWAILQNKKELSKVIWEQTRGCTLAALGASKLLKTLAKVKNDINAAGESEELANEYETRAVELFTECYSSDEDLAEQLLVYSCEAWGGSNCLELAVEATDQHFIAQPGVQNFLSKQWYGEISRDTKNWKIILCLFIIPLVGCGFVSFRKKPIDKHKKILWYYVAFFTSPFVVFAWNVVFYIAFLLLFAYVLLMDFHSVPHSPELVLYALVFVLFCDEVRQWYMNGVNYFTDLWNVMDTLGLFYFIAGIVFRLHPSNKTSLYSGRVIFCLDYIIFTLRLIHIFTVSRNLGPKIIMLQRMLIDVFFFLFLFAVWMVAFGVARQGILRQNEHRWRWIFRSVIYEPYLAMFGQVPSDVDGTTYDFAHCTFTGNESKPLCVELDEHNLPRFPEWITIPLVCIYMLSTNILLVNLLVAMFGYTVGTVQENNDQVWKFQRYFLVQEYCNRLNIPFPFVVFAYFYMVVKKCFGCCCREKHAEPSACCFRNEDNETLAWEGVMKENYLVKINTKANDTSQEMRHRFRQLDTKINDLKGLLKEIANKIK

SMILES	inhibition at 0.2 µM	IC50
C(=CC1CCCCC1)c1nc2cc(-c3ccccc3)ccc2[nH]1 [Compound 2, 2-(2-Cyclohexyl-vinyl)-5-phenyl-1H-benzimidazole]	96%	110 nM
Cc1ccccc1-c1ccc2[nH]c(C=CC3CCCCC3)nc2c1 [Compound 3, 2-(2-Cyclohexyl-vinyl)-5-o-tolyl-1H-benzimidazole]	103%	7 nM
FC(F)(F)COc1ccccc1-c1ccc2[nH]c(C=CC3CCCCC3)nc2c1 [Compound 4, 2-(2-Cyclohexyl-vinyl)-5-[2-(2,2,2-trifluoro-ethoxy)-phenyl]-1H-benzimidazole]	103%	3 nM
Oc1cccc(-c2ccc3[nH]c(C=CC4CCCCC4)nc3c2)c1 [Compound 5, 3-[2-(2-Cyclohexyl-vinyl)-1H-benzimidazol-5-yl]-phenol]	18%	–
OCc1ccccc1-c1ccc2[nH]c(/C=C/C3CCCCC3)nc2c1 [Compound 6]	103%	12 nM
CC1(c2ccccc2-c2ccc3[nH]c(C=CC4CCCCC4)nc3c2)OCCO1 [Compound 7, 2-(2-Cyclohexyl-vinyl)-5-[2-(2-methyl-[1,3]dioxolan-2-yl)-phenyl]-1H-benzimidazole]	103%	34 nM
CC(=O)c1ccccc1-c1ccc2[nH]c(C=CC3CCCCC3)nc2c1 [Compound 8, 1-{2-[2-(2-Cyclohexyl-vinyl)-1H-benzimidazol-5-yl]-phenyl}-ethanone]	97%	41 nM
Fc1ccc(Cl)c(-c2ccc3[nH]c(C=CC4CCCCC4)nc3c2)c1 [Compound 9, 5-(2-Chloro-5-fluoro-phenyl)-2-(2-cyclohexyl-vinyl)-1H-benzimidazole]	101%	11 nM
Fc1cccc(Cl)c1-c1ccc2[nH]c(C=CC3CCCCC3)nc2c1 [Compound 10, 5-(2-Chloro-6-fluoro-phenyl)-2-(2-cyclohexyl-vinyl)-1H-benzimidazole]	101%	6 nM
COc1cccc(F)c1-c1ccc2[nH]c(C=CC3CCCCC3)nc2c1 [Compound 11, 2-(2-Cyclohexyl-vinyl)-5-(2-fluoro-6-methoxy-phenyl)-1H-benzimidazole]	102%	32 nM
COc1cc(F)ccc1-c1ccc2[nH]c(C=CC3CCCCC3)nc2c1 [Compound 12, 2-(2-Cyclohexyl-vinyl)-5-(4-fluoro-2-methoxy-phenyl)-1H-benzimidazole]	92%	39 nM
COc1cccc(OC)c1-c1ccc2[nH]c(C=CC3CCCCC3)nc2c1 [Compound 14, 2-(2-Cyclohexyl-vinyl)-5-(2,6-dimethoxy-phenyl)-1H-benzimidazole]	95%	2 nM
Fc1cccc(F)c1-c1ccc2[nH]c(C=CC3CCCCC3)nc2c1 [Compound 15, 2-(2-Cyclohexyl-vinyl)-5-(2,6-difluoro-phenyl)-1H-benzimidazole]	102%	28 nM
Fc1ccccc1-c1ccc2[nH]c(C=CC3CCCCC3)nc2c1 [Compound 16, 2-(2-Cyclohexyl-vinyl)-5-(2-fluoro-phenyl)-1H-benzimidazole]	102%	14 nM
Cc1ccsc1-c1ccc2[nH]c(C=CC3CCCCC3)nc2c1 [Compound 17, 2-(2-Cyclohexyl-vinyl)-5-(3-methyl-thiophen-2-yl)-1H-benzimidazole]	102%	17 nM
COc1ccc(Cl)c(-c2ccc3[nH]c(C=CC4CCCCC4)nc3c2)c1 [Compound 18, 5-(2-Chloro-5-methoxy-phenyl)-2-(2-cyclohexyl-vinyl)-1H-benzimidazole]	101%	32 nM
Clc1ccc(Cl)c(-c2ccc3[nH]c(C=CC4CCCCC4)nc3c2)c1 [Compound 19, 2-(2-Cyclohexyl-vinyl)-5-(2,5-dichloro-phenyl)-1H-benzimidazole]	86%	34 nM
COc1ccc(Cl)cc1-c1ccc2[nH]c(C=CC3CCCCC3)nc2c1 [Compound 20, 5-(5-Chloro-2-methoxy-phenyl)-2-(2-cyclohexyl-vinyl)-1H-benzimidazole]	85%	53 nM
Fc1ccc(F)c(-c2ccc3[nH]c(C=CC4CCCCC4)nc3c2)c1 [Compound 22, 2-(2-Cyclohexyl-vinyl)-5-(2,5-difluoro-phenyl)-1H-benzimidazole]	101%	31 nM
Fc1ccccc1-c1ccc2[nH]c(C=CC3CCCC3)nc2c1 [Compound 24, 2-(2-Cyclopentyl-vinyl)-5-(2-fluoro-phenyl)-1H-benzimidazole]	85%	97 nM
Cc1ccsc1-c1ccc2[nH]c(C=CC3CCCC3)nc2c1 [Compound 25, 2-(2-Cyclopentyl-vinyl)-5-(3-methyl-thiophen-2-yl)-1H-benzimidazole]	102%	13 nM
FC(F)(F)Oc1ccccc1-c1ccc2nc(C=CC3CCCC3)[nH]c2c1 [Compound 26, 2-(2-Cyclopentyl-vinyl)-5-(2-trifluoromethoxy-phenyl)-1H-benzimidazole]	100%	33 nM
N#Cc1ccccc1-c1ccc2[nH]c(C=CC3CCCC3)nc2c1 [Compound 27, 2-[2-(2-Cyclopentyl-vinyl)-1H-benzimidazol-5-yl]-benzonitrile]	100%	47 nM
OCc1ccccc1-c1ccc2[nH]c(C=CC3CCCC3)nc2c1 [Compound 28, {2-[2-(2-Cyclopentyl-vinyl)-1H-benzimidazol-5-yl]-phenyl}-methanol]	95%	42 nM
CC(=O)c1ccccc1-c1ccc2[nH]c(C=CC3CCCC3)nc2c1 [Compound 29, 1-{2-[2-(2-Cyclopentyl-vinyl)-1H-benzimidazol-5-yl]-phenyl}-ethanone]	77%	170 nM
FC1=CCC(C=Cc2nc3cc(-c4ccccc4C(F)(F)F)ccc3[nH]2)CC1 (centres unmarked) [Compound 31, 2-[2-(4-Fluoro-cyclohex-3-enyl)-vinyl]-5-(2-trifluoromethyl-phenyl)-1H-benzimidazole]	102%	6 nM
FC1=CCC(C=Cc2nc3cc(-c4ccccc4OC(F)(F)F)ccc3[nH]2)CC1 (centres unmarked) [Compound 32, 2-[2-(4-Fluoro-cyclohex-3-enyl)-vinyl]-5-(2-trifluoromethoxy-phenyl)-1H-benzoimidazole hydrochloride salt]	101%	5.2 nM
COc1ccc(F)cc1-c1ccc2[nH]c(C=CC3CC=C(F)CC3)nc2c1 (centres unmarked) [Compound 33, 2-[2-(4-Fluoro-cyclohex-3-enyl)-vinyl]-5-(5-fluoro-2-methoxy-phenyl)-1H-benzoimidazole hydrochloride salt]	101%	9 nM
FC1=CCC(C=Cc2nc3cc(-c4ccccc4Cl)ccc3[nH]2)CC1 (centres unmarked) [Compound 34, 5-(2-Chloro-phenyl)-2-[2-(4-fluoro-cyclohex-3-enyl)-vinyl]-1H-benzoimidazole hydrochloride salt]	101%	5 nM
Cc1cccc(C)c1-c1ccc2[nH]c(C=CC3CC=C(F)CC3)nc2c1 (centres unmarked) [Compound 35, 5-(2,6-Dimethyl-phenyl)-2-[2-(4-fluoro-cyclohex-3-enyl)-vinyl]-1H-benzoimidazole hydrochloride salt]	100%	4 nM
